This note sets out measurements from PMC7589190, “Targeted Amino Acid Substitutions in a Trichoderma Peptaibol Confer Activity against Fungal Plant Pathogens and Protect Host Tissues from Botrytis cinerea Infection” (International Journal of Molecular Sciences, 2020).

“Also recorded” adds a separate entry of the source. Marks after values point to notes of the source that are not given here. Square brackets hold non-standard residues; d marks the D form. Peptide text beside a SMILES is read from it. * marks the point of attachment. Leu(ol) = CC(C)C[C@H](N)CO; Octanoyl = CCCCCCCC(=O)*; Api = NC1(C(=O)O)CCNCC1; Aib = CC(C)(N)C(=O)O

In data set [1] the test system is B. cinerea. Description: Resazurin vital dye growth assay in microtiter wells. As to conditions: for Growth Delay / fungal growth / activity against B. cinerea (in words): peptide 15 µM; for Growth Delay: PDB pH 6.9, 5 × 10^5 spores mL^−1, resazurin, 25 °C dark, vs untreated control, repeated three times; for fungal growth / activity against B. cinerea (in words): resazurin dye; for Antifungal Activity: summary of performance of Lys-containing analogs against B. cinerea. It is filed as cell-based, Botrytis cinerea. More on the design: key to Antifungal Activity: –, no activity.

The subject of another data set is trypsin. The conditions noted are these: HPLC.
The test system of data set [2] is pronase E (a mixture of different proteases). The conditions noted are these: after 27 h, HPLC.
Another data set deals with B. sorokiniana. It is filed as cell-based, Bipolaris sorokiniana. As to conditions: for growth inhibition at maximum concentration tested: 15 µM, 96 h, absorbance at 450 nm.
Data set [3] has as its system B. cinerea. Description: Protection of common bean leaves from B. cinerea infection. As to conditions: for reduction of infected (symptomatic) leaf area: common bean leaves (Phaseolus vulgaris, Borlotto var. Teggia), peptide sprayed at 50 µM.
Method: Leaves of common bean (Phaseolus vulgaris, Borlotto var. Teggia) were detached from 12 days-old plants grown in organic soil into a climatic chamber with a 14 h photoperiod and 22/20 °C day/night temperature.
Treatments were performed by spraying the peptides at different concentrations on leaves and berries. Water spraying was performed as a negative control.
Leaves were arranged on moist towels in plastic trays and inoculated with a suspension of 2.5 × 10^6 mL^−1 conidia of B. cinerea in potato dextrose broth (PDB). Ten microliters of the conidia suspension were dropped on two or three points apart on the leaf surface of common bean and grapevine leaves, respectively.
Inoculated leaves and berries were incubated in the dark at 25 °C in plastic bags to maintain humidity.
Seven days post-inoculation (dpi), the size of the symptomatic leaf area was measured from pictures taken with a Panasonic Lumix DMC-FZ2000 by using the graphic software “Fiji ImageJ” (GNU General Public License).
The experiment was repeated three times with leaves and four times with berries. Each treatment was performed with seven leaves of common bean and three leaves of the grapevine.
Data obtained in the infection experiments performed on common bean leaves were statistically analyzed by applying the one-way Anova Bonferroni–Holm test. The statistical analysis was performed within the groups of peptides tested at the same time compared to their respective control.
Data set [4] deals with B. cinerea. Description: Protection of grape berries from B. cinerea infection. The class given is in vivo, Botrytis cinerea. As to conditions: 50 µM, vs control.
Another data set concerns B. cinerea conidia. The data set can be described thus: Cell viability assay of conidia (Evan's blue staining, plating on PDA). It is filed as cell-based, Botrytis cinerea. As to conditions: 15 µM.
The subject of data set [5] is B. cinerea. The class given is cell-based, Botrytis cinerea. The conditions noted are these: 15 µM, 96 h, absorbance at 450 nm.
Data set [6] concerns B. cinerea. Description: Protection of grapevine leaves from B. cinerea infection. It is filed as in vivo, Botrytis cinerea. The conditions noted are these: grapevine leaves cv. Glera, 50 µM, 7 dpi, vs water control, three experiments.
Another data set deals with F. graminearum. The conditions noted are these: for MIC: 96 h, pH 6.9.
In the next data set the test system is P. expansum. The conditions noted are these: for growth inhibition at maximum concentration tested: 15 µM, 96 h, absorbance at 450 nm.
The nature of data set [7]: Water solubility of the peptides. The class given is physicochemical. As to conditions: native peptide; solubilized in ethanol before dilution in water. As to the method:
Peptides were produced by manual and semiautomatic solid-phase peptide synthesis (SPPS). To reduce the impact on the environment of the synthesis, a limited excess of reagents was employed in the coupling steps (1.5–2.5 equivalents of coupling reagents instead of the standard 4 equivalents-1 equivalent corresponds to the loading of the resin). Moreover, all steps were performed in the ecofriendly solvent mixture of dimethylsulfoxide/ethyl acetate 1:9 instead of the hazardous solvent N,N-dimethylformamide (DMF). We exploited ethyl cyano(hydroxyimino) acetate (Oxyma pure) and diisopropylcarbodiimide (DIC), classified by the ACS Green Chemistry Institute® Pharmaceutical Roundtable as two of the greenest coupling reagents, instead of the commonly employed O-benzotriazol-1-yl-1,1,3,3 tetramethyluronium hexafluorophosphate (HBTU)/1-hydroxy-1,2,3-benzotriazole (HOBt) mixture or HATU [2-(1H-7-aza-1,2,3-benzotriazol-1-yl)-1,1,3,3-tetramethyl uronium hexafluorophosphate]. The strategy reduced the environmental impact and synthetic costs by more than 70% compared to our previous methods based on standard procedure. By adopting a manual/semiautomatic synthetic approach, the amount of solvents and reagents were reduced relative to those used in automated synthesis. The steric hindrance of Aib makes it poorly reactive, to the point that standard procedures employ repeated couplings. […]

Setting [8] is: monitored every 12 h for seven days.

One may read the MIC as the lowest concentration found to suppress growth.

On to `CCCCCCCC(=O)NC(C)(C)C(=O)N[C@@H](CCCCN)C(=O)N[C@@H](CC(C)C)C(=O)NC(C)(C)C(=O)N[C@@H](CCCCN)C(=O)NCC(=O)N[C@@H](CC(C)C)C(=O)NC(C)(C)C(=O)NCC(=O)N[C@H](C(=O)N[C@H](CO)CC(C)C)[C@@H](C)CC` [Peptide 1] (Octanoyl-[Aib]KL[Aib]KGL[Aib]GI[Leu(ol)]), for which, in the data set with B. cinerea [1] (setting [8]), the “Growth Delay” value lay in the range of 0.5 to 1 days and the “fungal growth / activity against B. cinerea (in words)” value (from here on “fungal growth / activity”) is “delayed growth”. Moreover, the “Antifungal Activity” value with B. cinerea [1] is listed as “+ ^a”. The “time to digestion by trypsin” value with trypsin is recorded as “less than 15 min”. In [2], the stability against pronase entry is “stable”.
Take `CCCCCCCC(=O)NC(C)(C)C(=O)NCC(=O)N[C@@H](CC(C)C)C(=O)NC(C)(C)C(=O)N[C@@H](CCCCN)C(=O)N[C@@H](CCCCN)C(=O)N[C@@H](CC(C)C)C(=O)NC(C)(C)C(=O)NCC(=O)N[C@H](C(=O)N[C@H](CO)CC(C)C)[C@@H](C)CC` [Peptide 4]: the “growth inhibition at maximum concentration tested” value (shortened to “growth inhibition”) in the data set on B. sorokiniana was “strong growth inhibition effect”; with B. cinerea [5], “completely inhibited the growth”; in the data set on F. graminearum, “completely inhibited the growth”; with P. expansum, “completely inhibited the growth”. For the same compound, the “reduction of infected (symptomatic) leaf area” value in the data set with B. cinerea [3] (7 dpi, vs water control) is given as > 95%. For the same compound, the “disease symptoms (in words)” value with B. cinerea [3] (common bean leaves, 15 µM) is reported as “significant decrease in disease symptoms”; with B. cinerea [3] (common bean leaves, 50 µM), “almost complete annulment”. In the data set on B. cinerea [3] (common bean leaves, peptide sprayed at 15 µM, 7 dpi, vs water control), the “reduction of lesion (symptomatic leaf) area” value is “about 75%”. Besides, the “increase in the number of asymptomatic berries” value with B. cinerea [4] was “threefold increase”. For the same compound, in the data set on B. cinerea conidia (24 h incubation in PDB, 5 × 10^5 mL^−1 conidia), the “germination of conidia (microscopy, Evans blue)” value is recorded as “conidia did not germinate”. In addition, the “fungal growth after rinsing and plating treated conidia on PDA (fungicidal activity)” value with B. cinerea conidia (treated 24 h, rinsed with distilled water, plated on PDA) is reported as “No fungal growth was observed”. Further, in the data set on B. cinerea [6], the “reduction of infected leaf area” value was “about 70%”. Besides, in the data set with F. graminearum, the MIC lay within 5 to 15 µM. For the same compound, in the data set with B. cinerea [1] (monitored for seven days), the “Growth Delay” value is >7 days. For the same compound, the “fungal growth / activity” value with B. cinerea [1] (setting [8]) is given as “No growth occurred”. Also, the “Antifungal Activity” value in the data set with B. cinerea [1] was “++++”.
Turning to `CCCCCCCC(=O)NC(C)(C)C(=O)NCC(=O)N[C@@H](CC(C)C)C(=O)NC(C)(C)C(=O)NCC(=O)N[C@@H](CCCCN)C(=O)N[C@@H](CC(C)C)C(=O)NC(C)(C)C(=O)NCC(=O)N[C@H](C(=O)N[C@H](CO)CC(C)C)[C@@H](C)CC` [Peptide 5], the “growth inhibition” value was “strong growth inhibition effect” in the data set with B. sorokiniana, “completely inhibited the growth” in the data set with B. cinerea [5], “completely inhibited the growth” in the data set on F. graminearum and “completely inhibited the growth” in the data set on P. expansum. The “reduction of infected (symptomatic) leaf area” value in the data set with B. cinerea [3] (7 dpi, vs water control) is listed as > 95%. The “disease symptoms (in words)” value in the data set on B. cinerea [3] (common bean leaves, 15 µM) is on record as “significant decrease in disease symptoms”; with B. cinerea [3] (common bean leaves, 50 µM) it was “almost complete annulment”. The compound further showed an MIC in the data set on F. graminearum of 5 to 15 µM. Further, in the data set on B. cinerea [1] (monitored for seven days), the “Growth Delay” value is given as >7 days. Also, the “fungal growth / activity” value with B. cinerea [1] (setting [8]) is reported as “No growth occurred”. The “Antifungal Activity” value in the data set on B. cinerea [1] is given as “++++”.
`CCCCCCCC(=O)NC(C)(C)C(=O)NCC(=O)N[C@@H](CC(C)C)C(=O)NC(C)(C)C(=O)NCC(=O)NCC(=O)N[C@@H](CC(C)C)C(=O)NC1(C(=O)NCC(=O)N[C@H](C(=O)N[C@H](CO)CC(C)C)[C@@H](C)CC)CCNCC1` [Peptide 8, [Api^8]-trichogin] (Octanoyl-[Aib]GL[Aib]GGL[Api]GI[Leu(ol)]): the “growth inhibition” value is “strong growth inhibition effect” with B. sorokiniana, “completely inhibited the growth” with B. cinerea [5], “completely inhibited the growth” with F. graminearum and “completely inhibited the growth” in the data set with P. expansum. The same compound returned a minimum inhibitory concentration (MIC) in the data set on F. graminearum of 5 to 15 µM. Besides, the “Growth Delay” value with B. cinerea [1] (monitored for seven days) is given as >7 days. The “fungal growth / activity” value in the data set on B. cinerea [1] (setting [8]) was “No growth occurred”.
With “nOct-Aib-Gly^2-Leu-Aib-Gly^5-Gly-Leu-Aib^8-Gly-Ile-Lol [trichogin, trichogin GA IV, reference compound]”, in the data set on B. sorokiniana, the “activity against B. sorokiniana (in words)” value is “inactive”. The “water solubility (in words)” value in data set [7] is “poor water solubility”. The “activity against F. graminearum (in words)” value in the data set on F. graminearum was “inactive”. In addition, in the data set on B. cinerea [1] (setting [8]), the “Growth Delay” value is 0 days and the “fungal growth / activity” value is “fungal growth was observed after 12 h; also recorded: completely inactive”. For the same compound, the “activity against P. expansum (in words)” value in the data set with P. expansum was “inactive”.
